Reference: ChEMBL document CHEMBL1201862, “PubChem BioAssay data set” (2004)
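Briefly, cells in 96-well plates were exposed to five compound concentrations for 48 h, and endpoints were estimated by linear interpolation. GI50: concentration for 50% inhibition of growth.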 The source made the active and inactive calls. No stated cut-off is given here; in the data, active = GI50 up to about 1.1 µM and inactive = higher.

Key:
Experiment in all cases: NCI-60 cell line screen, 48 h
SF-539 = system: SF-539
K562 = system: K562
TK-10 = system: TK-10
SK-MEL-5 = system: SK-MEL-5
A549 = system: A549
CCRF-CEM = system: CCRF-CEM
SN12C = system: SN12C
786-0 = system: 786-0
RPMI-8226 = system: RPMI-8226
Malme-3M = system: Malme-3M
SK-MEL-2 = system: SK-MEL-2
U-251 = system: U-251
ACHN = system: ACHN
HCT-116 = system: HCT-116
OVCAR-3 = system: OVCAR-3
HOP-62 = system: HOP-62

Measured: GI50

Oc1c(Cl)c2nccnc2c2ccccc12
inactive: SF-539 > 100 µM | K562 > 100 µM | TK-10 > 100 µM | SK-MEL-5 > 100 µM | A549 > 100 µM | CCRF-CEM > 100 µM | SN12C > 100 µM | 786-0 > 100 µM | RPMI-8226 > 100 µM | Malme-3M > 100 µM | SK-MEL-2 > 100 µM | U-251 > 100 µM | ACHN > 100 µM | HCT-116 > 100 µM | OVCAR-3 > 100 µM

Cc1cc(Cc2cc(C)c(NC(=O)C(=O)C3C(=O)NC(=S)NC3=O)c(C(C)C)c2)cc(C(C)C)c1NC(=O)C(=O)C1C(=O)NC(=S)NC1=O
inactive: K562 > 100 µM | TK-10 > 100 µM | A549 > 100 µM | CCRF-CEM > 100 µM | SN12C > 100 µM | 786-0 > 100 µM | RPMI-8226 > 100 µM | HOP-62 > 100 µM | Malme-3M > 100 µM | U-251 > 100 µM | ACHN > 100 µM | HCT-116 > 100 µM | OVCAR-3 > 100 µM

[O-][Cl+3]([O-])([O-])O.c1ccc(/N=c2\snc(-c3ccccc3)s2)cc1
inactive: SF-539 > 100 µM | K562 > 100 µM | TK-10 > 100 µM | SK-MEL-5 > 100 µM | A549 > 100 µM | CCRF-CEM > 100 µM | SN12C > 100 µM | 786-0 > 100 µM | RPMI-8226 > 100 µM | HOP-62 > 100 µM | Malme-3M > 100 µM | SK-MEL-2 > 100 µM | U-251 > 100 µM | ACHN > 100 µM | HCT-116 > 100 µM

CC1=C(C(=O)Nc2ccccc2C)C(c2ccccc2C)C(C(=O)Nc2ccccc2C)=C(C)N1
inactive: SF-539 > 10 µM | K562 19.8 µM | TK-10 28.8 µM | A549 30.6 µM | SN12C 18 µM | 786-0 17.6 µM | RPMI-8226 24 µM | HOP-62 25.2 µM | Malme-3M 18.2 µM | SK-MEL-2 18.7 µM | U-251 19.5 µM | ACHN 15.7 µM | HCT-116 20.4 µM | OVCAR-3 16.6 µM

Cc1[nH]c2ccccc2c1C(=O)CC1(O)C(=O)Nc2c(Cl)cc(Cl)cc21 (stereo unspecified)
inactive: SF-539 26.4 µM | K562 20.9 µM | TK-10 39.4 µM | SK-MEL-5 17.2 µM | A549 36.1 µM | CCRF-CEM 20.3 µM | SN12C 24.8 µM | 786-0 26.8 µM | RPMI-8226 25.5 µM | HOP-62 46.9 µM | Malme-3M 18.9 µM | SK-MEL-2 28.6 µM | U-251 30.1 µM | ACHN 21.9 µM | HCT-116 35.1 µM | OVCAR-3 16.6 µM

C[N+]1=c2c3cccc4cccc(c(=O)n2CCC1)c43
inactive: SF-539 30.8 µM | K562 9.02 µM | TK-10 14.6 µM | SK-MEL-5 17.9 µM | A549 32.2 µM | CCRF-CEM 3.13 µM | SN12C 21 µM | 786-0 35.9 µM | RPMI-8226 19.6 µM | HOP-62 31 µM | Malme-3M 18 µM | SK-MEL-2 16.6 µM | U-251 29.9 µM | ACHN 22.4 µM | HCT-116 16.1 µM | OVCAR-3 22.9 µM

Cn1cc(C(=O)C[n+]2ccccc2)c2ccccc21
inactive: SF-539 78.3 µM | K562 33.6 µM | TK-10 > 100 µM | SK-MEL-5 > 100 µM | A549 50.6 µM | CCRF-CEM 61.9 µM | SN12C 62.4 µM | 786-0 > 100 µM | RPMI-8226 > 100 µM | HOP-62 83.8 µM | Malme-3M 69.7 µM | SK-MEL-2 > 100 µM | ACHN > 100 µM | HCT-116 > 100 µM | OVCAR-3 20.9 µM

O=C(Cc1ccccc1)NN1C(=O)C(Cl)C1c1ccccc1O (stereo unspecified)
inactive: K562 14.4 µM | TK-10 45.3 µM | A549 21.4 µM | CCRF-CEM 3.17 µM | SN12C 27.9 µM | 786-0 16.8 µM | RPMI-8226 9.84 µM | HOP-62 12.6 µM | Malme-3M 19.5 µM | SK-MEL-2 17.8 µM | U-251 12.8 µM | ACHN 6.98 µM | HCT-116 5.56 µM | OVCAR-3 2.64 µM

N#CN1CC[C@@H]2CC3(CCC2C1)OCCO3 (stereo partly specified)
inactive: SF-539 > 100 µM | K562 > 100 µM | TK-10 > 100 µM | SK-MEL-5 > 100 µM | A549 > 100 µM | CCRF-CEM > 100 µM | SN12C > 100 µM | 786-0 > 100 µM | RPMI-8226 > 100 µM | HOP-62 > 100 µM | Malme-3M > 100 µM | SK-MEL-2 > 100 µM | U-251 > 100 µM | ACHN > 100 µM | HCT-116 > 100 µM | OVCAR-3 > 100 µM

O=C1NC(=S)NC(=O)C1=Cc1ccc[nH]1
inactive: SF-539 15.1 µM | K562 11.2 µM | TK-10 17.4 µM | SK-MEL-5 26.5 µM | A549 26.7 µM | CCRF-CEM 19.2 µM | SN12C 10.6 µM | 786-0 10.6 µM | RPMI-8226 3.41 µM | HOP-62 32.6 µM | Malme-3M 19.9 µM | SK-MEL-2 19.7 µM | U-251 27.1 µM | ACHN 15 µM | HCT-116 3.48 µM | OVCAR-3 7.38 µM

COC(=O)c1c(O)ccc(O)c1C(C(C)=O)C(C)=O
inactive: SF-539 > 100 µM | K562 > 100 µM | TK-10 > 100 µM | SK-MEL-5 > 100 µM | A549 > 100 µM | CCRF-CEM > 100 µM | SN12C > 100 µM | 786-0 > 100 µM | RPMI-8226 > 100 µM | HOP-62 > 100 µM | Malme-3M > 100 µM | SK-MEL-2 > 100 µM | U-251 > 100 µM | HCT-116 > 100 µM | OVCAR-3 > 100 µM

CCOC(=O)c1[nH]c(CN(C)Cc2[nH]c(C(=O)OCC)c(C)c2C(=O)OCc2ccccc2)c(C(=O)OCc2ccccc2)c1C
inactive: SF-539 8.47 µM | K562 6.17 µM | TK-10 16.7 µM | SK-MEL-5 6.44 µM | A549 16.6 µM | CCRF-CEM > 100 µM | SN12C 6.19 µM | 786-0 11.2 µM | HOP-62 13 µM | Malme-3M 40.3 µM | U-251 12.1 µM | ACHN 18.4 µM | HCT-116 7 µM | OVCAR-3 10.4 µM

C[N+]12c3ccccc3O[B-]1(c1ccccc1)Oc1ccccc12 (stereo unspecified)
inactive: SF-539 26.9 µM | K562 28.6 µM | TK-10 23.5 µM | SK-MEL-5 36.2 µM | A549 39.4 µM | CCRF-CEM 11.9 µM | SN12C 31.9 µM | 786-0 35.9 µM | RPMI-8226 37.4 µM | HOP-62 72.1 µM | Malme-3M 40 µM | U-251 16.6 µM | ACHN 14.8 µM | HCT-116 38.5 µM | OVCAR-3 31 µM

C=C(C[N+](C)(C)C)N/N=C/c1oc(-c2ccc(OC)c(OC)c2)c(-c2ccc(OC)c(OC)c2)c1[N+](=O)[O-]
inactive: SF-539 16.7 µM | K562 19.1 µM | TK-10 22.4 µM | SK-MEL-5 16.4 µM | A549 38.5 µM | CCRF-CEM 13.6 µM | SN12C 16.7 µM | 786-0 17.6 µM | RPMI-8226 14.6 µM | Malme-3M > 10 µM | SK-MEL-2 16.7 µM | U-251 19.5 µM | ACHN 15.4 µM | HCT-116 17 µM | OVCAR-3 24.8 µM

O=C1NC(=O)c2c1n(Cc1ccccc1)c(=O)n2Cc1ccccc1
inactive: SF-539 36 µM | K562 35.8 µM | TK-10 96.6 µM | SK-MEL-5 > 100 µM | A549 > 100 µM | CCRF-CEM > 100 µM | SN12C > 100 µM | 786-0 > 100 µM | RPMI-8226 53.2 µM | HOP-62 > 100 µM | Malme-3M > 100 µM | SK-MEL-2 > 100 µM | U-251 > 100 µM | ACHN > 100 µM | HCT-116 > 100 µM | OVCAR-3 > 100 µM

Cc1ccc(S(=O)(=O)Nc2cccc(C)c2C)cc1
inactive: SF-539 > 100 µM | K562 36.6 µM | TK-10 65.3 µM | SK-MEL-5 31.2 µM | A549 59.6 µM | CCRF-CEM 40.5 µM | SN12C 55.1 µM | 786-0 > 100 µM | RPMI-8226 > 100 µM | HOP-62 86.3 µM | Malme-3M 96.8 µM | U-251 28.4 µM | HCT-116 49.1 µM | OVCAR-3 34 µM

NC1C2(CCCCCC2)NC(=O)C12CCCCCC2 (stereo unspecified)
inactive: SF-539 > 100 µM | K562 > 100 µM | TK-10 > 100 µM | SK-MEL-5 > 100 µM | A549 > 100 µM | CCRF-CEM > 100 µM | SN12C > 100 µM | 786-0 > 100 µM | HOP-62 > 100 µM | Malme-3M > 100 µM | SK-MEL-2 > 100 µM | U-251 > 100 µM | ACHN > 100 µM | HCT-116 > 100 µM | OVCAR-3 > 100 µM

Cc1noc2c1C(=O)CCC2
inactive: SF-539 > 100 µM | K562 > 100 µM | TK-10 > 100 µM | CCRF-CEM > 100 µM | SN12C > 100 µM | 786-0 > 100 µM | RPMI-8226 > 100 µM | Malme-3M > 100 µM | SK-MEL-2 > 100 µM | ACHN > 100 µM | HCT-116 > 100 µM | OVCAR-3 > 100 µM
